Consider eight molecules from patent US10513529B2, “1,2,4-triazolo-[3,4-b]-1,3,4-thiadiazole derivatives” (GALENICA S.A., priority 2016, dated 2019).

Bounds are passed on as bounds.

Holding throughout (format): cell-based
Assay [1] deals with A-549 human lung carcinoma cell line. The assay is described as follows: MTT cytostatic-cytotoxic activity, A-549. As to conditions: for TGI: A-549, 48 h treatment; for GI50 / IC50: Homo sapiens, A549, A-549, 48 h treatment; for IC50: kills 50% of the cells.
Assay [2] has as its system UWB1.289 + BRCA1 human ovarian cancer cell line. The assay is described as follows: MTT cytostatic-cytotoxic activity, UWB1.289+BRCA1. As to conditions: for GI50 / IC50: Homo sapiens, UWB1289, UWB1.289+BRCA1, 48 h treatment; for IC50: kills 50% of the cells; for TGI: UWB1.289+BRCA1, 48 h treatment. Here is the method: Human ovarian adenocarcinoma cells, derived from UBWB1,289, in which the presence of the BRCA1 gene has been restored. […] They are not susceptible to ionizing radiation and radioimmune chemical agents (e.g., alkylating agents). Also, UWB1.289 cells have mutated the p53 tumor suppressor gene, and are positive for the expression of cytokeratin 7 (CK-7), calretinin and Wilms' tumor protein (WT).
All cancer cell lines are stored in a liquid nitrogen tank in 2.5 ml cryovials (Corning-Costar, Cambridge, Mass.). DMSO (dimethylsulfoxide) act as a cryoprotectant and is added to prevent the formation of ice crystals which may lyse the cells. The Cells were grown as monolayer cultures in T-75 flasks (Corning-Costar, Cambridge, Mass.) and maintained at 37° C. in 5% CO2 incubator & 100% relative humidity. The cultures medium used are McCoy's 5a Medium, supplemented with 10% fetal bovine serum (FBS, Gibco) and 1% antibiotics (100 IU/ml penicillin/100 µg/ml streptomycin), sterilized by filtration (Corning-Costar filter, diameter 0.2 μm, RPMI-1640 and 50% RPMI-1640 (Catalog No 30-2001) plus 50% Mammary Epithelial Growth Medium (MEGM), supplemented with 10% fetal bovine serum (FBS, Gibco) and 1% antibiotics (100 IU/ml penicillin/100 μg/ml streptomycin). The passage is performed every 3-4 to days as follows: Cells are washed with sterile PBS (Phosphate buffered saline): 8 g/l NaCl, 0,2 g/l KCl, 1,15 g/l Na2HPO4καl 0,2 g/l KH2PO4. pH:7,4), add 2-3 ml 0.05% trypsin (Gibco 1:250) and 0.02% EDTA to cover the monolayer and incubate the flask at 3TC for 5-10 minutes. Trypsin-EDTA, is used mainly to detach the cells from the flask and prepare a single cell suspension. Finally, the number of cells can be determined by direct counting using a Neubauer chamber and cell viability is determined by staining the cells with trypan blue.
In the experimental study the in vitro effect of the compound type (I) was evaluated against ovarian cancer cell lines UWB1.289, UWB1.289+BRCA1 Kai SKOV-3.The cells were plated in 96-well plate (MTP) at a density of 1×10^4cells/m1 per well and maintained for 72 h at 3TC in a 5% CO2 incubator and grown as monolayers. The selection of the initial number of cells was made according to the rate of proliferation of the cell line, in order the cells throughout the experiment are in an exponential (log) growth phase. After 24 hours, cells were treated with 1-100 μmol/l of the tested compounds for 48 h. Experiments were carried out using triplicate wells. The viability of cultured cells was estimated by an (3-(4,5-imethylthiazol-2-yl)-2,5-diphenyltetrazolium bromide (MTT) metabolic assay as described previously (Finlay G J, Wilson W R and Baguley B C: Comparison of in vitro activity of cytotoxic drugs towards human carcinoma and leukaemia cell lines. Eur J Cancer Clin Oncol 22: 655-662, 1986; Alley M C, Scudiero D A, Monks A, Hursey M L, Czerwinski M J, Fine D L, et al. Feasibility of drug screening with panels of human tumor cell lines using a microculture tetrazolium assay. Cancer Res 1988; 48:589-601). MTT (Sigma, St Louis, Mo., USA) was dissolved in PBS in a concentration of 5 mg/ml, filter sterilized, and stored at 4° C. MTT (50 μl of stock solution) was added to each culture and incubated for 3 h at 3TC to allow metabolization. Formazan crystals were solubilized by DMSO (100 μl). Absorbance of the converted dye was measured at a wavelength of 540nm on ELISA reader (BioTek, Winooski, Vt., USA).
GI50: The mean concentration that causes 50% inhibition of cell growth (Growth Inhibition 50%). The calculation of the value is based on the formula: (Tt72x)−(Ct24)/(Ct72)-(Ct24)×100=50
TGI: The mean concentration that causes 100% inhibition of cell growth (Total Growth Inhibition). The value is calculated according to the formula: (Tt72x)−(Ct24)/(Ct72)−(Ct24)×100=0
IC50: The mean concentration that kills 50% of the cells (Inhibition Concentration 50%). The value is calculated according to the formula: (Tt72x)−(Ct24)/(Ct24)×100=[…]

In assay [3] the test system is MCF-7 human breast cancer cell line. The assay is described as follows: MTT cytostatic-cytotoxic activity, MCF-7. As to conditions: for GI50 / IC50: Homo sapiens; for GI50: MCF7, 48 h; for GI50 / TGI: MCF-7, 48 h treatment; for IC50: MCF7, MCF-7, 48 h treatment, kills 50% of the cells.
For assay [4], the system named is all 9 human cancer cell lines. The assay is described as follows: MTT cytostatic-cytotoxic activity, all 9 human cancer cell lines.

The TGI is the concentration at which net growth stops. In the case of `COc1cc(Cc2nnc3sc(/C=C/c4ccc(F)cc4)nn23)c(S(=O)(=O)N(C)C)cc1OC` [TS25, 3-[2-(N,N-dimethylsulfamoyl)-4,5-dimethoxybenzyl]-6-(E)-4-fluorostyryl-1,2,4-triazolo[3,4-b]-1,3,4-thiazole], the TGI in assay [1] is 56 µM; in assay [2] it was 12 µM; in assay [3] it was 51 µM. Besides, the figures for the GI50 in assay [1], in assay [2] and in assay [3] were 11 µM, 5 µM and 16 µM, respectively. The values for the IC50 in assay [1], in assay [2] and in assay [3] were 87 µM, 36 µM and 86 µM, respectively.

In assay [1], `COc1cc(Cc2nnc3sc(/C=C/c4ccc(Cl)cc4)nn23)c(S(=O)(=O)N(C)C)cc1OC` [TS26, 3-[2-(N,N-dimethylsulfamoyl)-4,5-dimethoxybenzyl]-6-(E)-4-chlorostyryl-1,2,4-triazolo[3,4-b]-1,3,4-thiazole] gave a TGI of 90 µM, a GI50 of 20 µM and an IC50 of more than 100 µM. In assay [2], the GI50 came to 11 µM, the IC50 was found to be 54 µM and the concentration for total growth inhibition (TGI) worked out at 37 µM. In addition, in assay [3], the GI50 was 25 µM, the IC50 is more than 100 µM and the TGI worked out at 67 µM.

For the molecule `COc1ccc(Cc2nn3c(Cc4cc(OC)c(OC)cc4S(=O)(=O)N(C)C)nnc3s2)cc1` [TS50, 3-[2-(N,N-dimethylsulfamoyl)-4,5-dimethoxybenzyl]-6-(4-methoxybenzyl)-1,2,4-triazolo[3,4-b]-1,3,4-thiazole], in assay [1], the TGI was more than 100 µM, the GI50 is 35 µM and the IC50 is more than 100 µM. Further, in assay [2], the GI50 is 16 µM, the IC50 was more than 100 µM and the TGI is more than 100 µM. In assay [3], this molecule showed a GI50 of 40 µM, an IC50 of more than 100 µM and a total growth inhibition concentration (TGI) of more than 100 µM.

For `COc1cc(Cc2nnc3sc(-c4ccccc4N)nn23)c(S(=O)(=O)N(C)C)cc1OC` [TS57, 3-[2-(N,N-dimethylosulfamoyl)-4,5-dimethoxybenzyl]-6-(2-aminophenyl)-1,2,4-triazolo[3,4-b]-1,3,4-thiazole], in assay [1], the TGI was more than 100 µM, the GI50 was more than 100 µM and the IC50 was more than 100 µM. Besides, in assay [2], the GI50 was found to be 85 µM, the IC50 is more than 100 µM and the TGI was more than 100 µM. In assay [3], this molecule came in with a GI50 of more than 100 µM, an IC50 of more than 100 µM and a TGI of more than 100 µM.

In assay [1], `COc1cc(Cc2nnc3sc(Cc4ccccc4)nn23)c(S(=O)(=O)N(C)C)cc1OC` [TS62, 3-[2-(N,N-dimethylsulfamoyl)-4,5-dimethoxybenzyl]-6-benzyl-1,2,4-triazolo[3,4-b]-1,3,4-thiazole] gave a TGI of 71 µM, a GI50 of 15 µM and an IC50 of more than 100 µM. Further, in assay [2], the GI50 came out at 8 µM, the IC50 was more than 100 µM and the TGI stood at 64 µM. In assay [3], this molecule came in with a GI50 of 18 µM, an IC50 of more than 100 µM and a TGI of more than 100 µM.

In assay [1], `COc1cc(Cc2nnc3sc(-c4ccc(Cl)cc4)nn23)c(S(=O)(=O)N(C)C)cc1OC` [TS63, 3-[2-(N,N-dimethylsulfamoyl)-4,5-dimethoxybenzyl]-6-(4-chlorophenyl)-1,2,4-triazolo[3,4-b]-1,3,4-thiazole] displayed a TGI of 36 µM, a GI50 of 14 µM and an IC50 of 92 µM. Further, in assay [2], the GI50 was 8 µM, the IC50 is more than 100 µM and the TGI was 64 µM. In assay [3], this molecule showed a GI50 of 22 µM, an IC50 of more than 100 µM and a TGI of 50 µM.

As to `COc1cc(Cc2nnc3sc(-c4ccc(N)cc4)nn23)c(S(=O)(=O)N(C)C)cc1OC` [TS71, 3-[2-(N,N-dimethylsulfamoyl)-4,5-dimethoxybenzyl]-6-(4-aminophenyl)-1,2,4-triazolo[3,4-b]-1,3,4-thiazole], in assay [1], the TGI was more than 100 µM, the GI50 is more than 100 µM and the IC50 was more than 100 µM. Also, in assay [2], the GI50 was found to be 90 µM, the IC50 is more than 100 µM and the TGI was more than 100 µM. Also, in assay [3], the GI50 is more than 100 µM, the IC50 is more than 100 µM and the TGI was more than 100 µM.

Turning to `COc1cc(Cc2nnc3sc(-c4ccccc4)nn23)c(S(=O)(=O)N(C)C)cc1OC` [TS167, 3-[2-(N,N-dimethylsulfamoyI)-4,5-dimethoxy-benzyl]-6-phenyl-1,2,4-triazolo[3,4-b]-1,3,4-thiazole], the TGI in assay [1], in assay [2] and in assay [3] was more than 100 µM in each case. Besides, the GI50 in assay [1] is 74 µM; in assay [2] it was 76 µM; in assay [3], 65 µM; in assay [4] (in all 9 human cancer cell lines, read-out: IG50 (cytostatic)) it was less than 100 µM. Moreover, the IC50 in assay [1] was more than 100 µM; in assay [2] it was more than 100 µM; in assay [3] it was more than 100 µM; in assay [4] (Homo sapiens, read-out: (cytotoxic)), more than 100 µM.
